Test results published in patent US9387160B2, “Composition and method of treating skin conditions” (Johnson & Johnson Consumer Holdings France, priority 2008, dated 2016).

Tests used:
[1] = Relative polarity index (RPI = log K, octanol/water partition coefficient); format: physicochemical; conditions: difference between Emollient RPI and Retinoid RPI
Description: The relative polarity index (RPI) of an emollient is well known by the one skilled in the art. The methodology for its calculation is described in the article published by Wiesher et al. 2004 Int J. Cosmetic Science. 26, 173-182. RPI can be calculated from the octanol/water partition coefficient (K) with: RPI=log K. Partition coefficient estimations K have been published, for example in: • Leo A, Hansch C, and Elkins D (1971). “Partition coefficients and their uses”. Chem Rev 71 (6): 525-616. • Wilkinson, Andrew M.; McNaught, Alan D. (1997). “Partition Coefficient”. Compendium of Chemical Terminology: IUPAC Recommendations. Oxford: Blackwell Science. doi:10.1351/goldbook. ISBN 0-86542-684-8. http://goldbook.iupac.org/P0447.html and • Sangster, James (1997). Octanol-Water Partition Coefficients: Fundamentals and Physical Chemistry, Vol. 2 of Wiley Series in Solution Chemistry. Chichester: John Wiley & Sons Ltd. pp. 178 pages. The RPI of retinol is approximatively 1. The RPI of retinal and retinol esters are well-known by the one skilled in the art and are similar to RPI of retinol. The net RPI of an emollient to the retinoid is the difference between the Emollient RPI and the Retinoid RPI. The net RPI of a composition to the retinoid is the difference between the Composition RPI and the Retinoid RPI. […]

[2] = RPI=log K, octanol/water; cited from earlier work

Compound | net relative polarity index to retinol [1] | RPI (relative polarity index) [2]
CCCCCCCCCCCCCC(C)C [isohexadecane] | 9.11 | –
CC1=C(/C=C/C(C)=C/C=C/C(C)=C/CO)C(C)(C)CCC1 [retinol] | – | ~1
PPG15 stearyl ether | having the same polarity as retinol | –
